Results: US9522928B2, “Mannosylated compounds useful for the prevention and the treatment of infectious diseases” (UNIVERSITE DE STRASBOURG, priority 2011, dated 2016)
“Also recorded” adds a separate entry of the source. Read-outs that look alike come from different tables or passages of the source.

How the values were obtained:
DC-SIGN CRD = molecular target: T1, DC-SIGN CRD (Homo sapiens, UniProt Q9NNX6); assay: Surface plasmon resonance (SPR) binding to immobilised DC-SIGN CRD
T1 construct: human DC-SIGN (Lys62-Ala404, from R§D Systems); purchased R&D Systems ('R§D Systems' [sic])
T1 sequence (Q9NNX6 62-404): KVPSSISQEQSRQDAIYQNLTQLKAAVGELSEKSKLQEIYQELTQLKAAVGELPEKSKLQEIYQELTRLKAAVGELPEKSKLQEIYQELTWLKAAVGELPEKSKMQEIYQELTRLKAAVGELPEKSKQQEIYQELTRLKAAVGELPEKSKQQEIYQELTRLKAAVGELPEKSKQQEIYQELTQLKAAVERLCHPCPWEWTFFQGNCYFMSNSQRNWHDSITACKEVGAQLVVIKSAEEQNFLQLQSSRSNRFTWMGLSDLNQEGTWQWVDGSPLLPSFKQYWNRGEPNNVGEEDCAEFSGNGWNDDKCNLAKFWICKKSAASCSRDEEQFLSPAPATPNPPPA
Experimental: SPR experiments were performed using a Biacore 3000. […] Biosensor assays were performed with HEPES-buffered saline (10 mM HEPES, 150 mM sodium chloride, pH 7.4) containing 0.005% surfactant P20 and 5 mM CaCl2 as a running buffer. All binding experiments were carried out at 25° C. with a constant flow rate of 20 μl/min. The different compounds dissolved in the running buffer (0.39 to 50 μM) were injected for 3 min, followed by a dissociation phase of 3 min. The sensor chip surface was regenerated after each experiment by injecting 10 μL of EDTA 0.5 M pH 8.0. A simple channel activated by EDC/NHS and deactivated with ethanolamine was used as control. The kinetic parameters were calculated using the BlAeval 4.1 software. Analysis was performed using the simple Langmuir binding model with separate ka/kd (kon/koff). The specific binding profiles were obtained after subtracting the response signal from the control channel and from blank-buffer injection. The fitting to each model was judged by the chi square value and randomness of residue distribution compared to the theoretical model (Langmuir binding 1:1).
The binding affinity of mannoside derivatives for the carbohydrate recognition domain (CRD) of DC-SIGN was assessed by surface plasmon resonance (SPR).
A CM5 sensor chip was functionalized with the DC-SIGN CRD, and increasing concentrations of the various compounds, mannan as a positive control and octaethyleneglycol (OEG) as a negative control, were injected over the chip surface. The association (kon) and dissociation (koff) rate constants and the resulting dissociation equilibrium constant (Kd=koff/kon) for each assessed compound were determined (see Table 1 hereunder).

HIV-1 R5 = HIV-1 R5 trans-infection of MAGI-CCR5 cells mediated by DCs; type: cell-based; conditions: for inhibition of HIV-1 trans-infection (in words): HIV-1 R5 where stated
Experimental: ManC1, […] (comparative) and compounds of the invention (ManC24, ManC17, TriManC24, TriDiManC24, TriManinsatC24 and ManinsatC24) were serially diluted in water. Human DCs (1×10^5 in 200 μl ) were pre-treated with different concentrations of compounds, or mannan (Sigma) or culture medium alone, in RPMI 1640 medium containing 10% FBS for 45 min at 37° C., prior infection with HIV-1 (100 ng of p24Gag) for 3 h. Excess free virus and molecules were removed by three washes. DCs were then cocultured with MAGI -CCR5 cells (1×10^5) at 37° C. plated in a 48-well plate. After two days, viral infection of MAGI-CCR5 cells was quantitated following beta-galactosidase assays and enumerating blue cells by light microscopy.
The IC50 were determined by serial dilution of each compound. The trans-infection assays were repeated a minimum of three times, and the IC50 determined using KaleidaGraph.
To investigate the ability of the compounds of the invention to inhibit HIV-1 trans infection, we chose to infect human DCs in order to best mimic in vivo conditions. Human DCs were exposed to different compounds (namely, Mannan (control), ManC1 (comparative), ManC11 (comparative), ManC17, ManC24, TriManC24, TriDiManC24, ManinsatC24 and TriManinsatC24) for 45 min at 37° C., before inoculation with HIV-1 (strains R5 and X4) for 3 hours. After extensive washings to remove unbound virions and mannosides, DCs were then co-cultured with MAGI-CCR5 cells. This procedure allows precise quantification of HIV-1 replication in reporter MAGI-CCR5 cells by detection of beta-galactosidase activity. These cells express an integrated copy of the HIV long terminal repeat (LTR) fused to the beta-galactosidase reporter gene, and express the CD4 receptor and the CCR5 and CXCR4 co-receptors, required for entry of HIV-1 R5 and X4 respectively. Upon viral entry leading to viral Tat expression and activation of the LTR, these cells permit quantification of HIV trans-infection after two days.

[1] = Hydrodynamic diameter of micelles (Zetasizer Nano ZS); type: physicochemical; conditions: in water at 0.5 mg/ml
Experimental: DiManinsatC24 was prepared according a procedure similar to that used for the preparation of TriDiManC24 except that: • pentacosanoic acid was replaced by 10,12-pentacosadiynoic acid, and • before the coupling with 10,12-pentacosadiynoic acid, the benzyl groups of compound 33 were replaced by acetyl group so as to provide compound 108 (as illustrated in FIG. 3E). ^1H NMR δ(ppm) (MeOD, 400 MHz) 4.87 (s, 3H), 4.73 (s, 3H), 3.64-3.50 (m, 14H), 3.46-3.20 (m, 76H), 2.97-2.93 (m, 6H), 2.33 (t, 6H, J=6.8 Hz), 2.09-1.96 (m, 6H), 1.08-1.05 (m, 32H), 0.66 (t, 3H, J=6.8 Hz). ^13C NMR δ (ppm) (MeOD, 100 MHz) 173.7, 168.8, 104.2, 101.2, 80.6, 80.4, 75.1, 74.7, 72.5, 72.2, 72.1, 71.9, 71.8, 71.7, 71.6, 71.4, 69.4, 69.1, 68.9, 68.7, 68.6, 68.0, 63.2, 63.1, 42.2, 37.0, 34.8, 33.7, 33.1, 30.8, 30.7, 30.6, 30.5, 30.4, 30.2, 29.5, 28.1, 27.0, 26.0, 23.7, 19.7, 14.4. IR (neat film, cm^−1): 3353, 2924, 1716, 1636, 1350, 1182, 1095, 1035, 1009, 837, 669. • Determination of critical micelle concentrations (CMCs) and size of particles. The hydrodynamic diameters of micelles of glycolipids were measured in water using a Zetasizer Nano ZS system (Malvern Instruments). The CMCs were measured using pyrene as an extrinsic fluorescent probe and were carried out as described (Perino et al., 2011). Briefly, a range of glycolipid samples were dissolved in water (1 ml), with concentrations ranging from 1.0 to 0.001 mg/ml. A stock solution of pyrene (1 mM) was prepared in dimethyl sulfoxyde and was added to each sample. Fluorescent emission of pyrene was measured at 25° C. using a Fluorolog spectrofluorometer (Jobin Yvon, Horiba). The intensities of fluorescence emission were determined at 374 nm (I374) and at 383 nm (I383), with an excitation at a 339 nm wavelength. The ratios I374/I383 were calculated and plotted against the glycolipid concentration. The CMC value was determined at the intersection of the two straight lines.

[2] = Human immunodeficiency virus 1, MAGI-CCR5, read-out: IC50 of HIV-1 trans-infection

| SMILES | koff (DC-SIGN CRD; 25° C., Langmuir 1:1) [s⁻¹] | kon (DC-SIGN CRD; 25° C., Langmuir 1:1) [M⁻¹ s⁻¹] | Kd (DC-SIGN CRD; Kd=koff/kon) [µM] | residual level of trans-infection (HIV-1 R5; HIV-1 R5, highest concentrations, relative to medium alone) [%] | IC50 (HIV-1 R5; Human immunodeficiency virus 1, MAGI-CCR5, HIV-1 R5, read-out: IC50 of HIV-1 trans-infection) [µM] | KD (μM) (DC-SIGN CRD; Kd=koff/kon) | hydrodynamic diameter of micelles [1] [nm] | inhibition of HIV-1 trans-infection (in words) (HIV-1 R5) | IC50 (HIV-1 R5; [2]) [µM] | binding to DC-SIGN CRD (in words) (DC-SIGN CRD) | Kon (M^−1 · s^−1) (DC-SIGN CRD; 25° C., Langmuir 1:1) |
| --- | --- | --- | --- | --- | --- | --- | --- | --- | --- | --- | --- |
| CCCCCCCCCCCCC#CC#CCCCCCCCCC(=O)NCCOCCOCCOCC(=O)NCCOCCOCCOCCO[C@H]1O[C@H](CO)[C@@H](O)[C@H](O)[C@@H]1O [ManinsatC24] | 0.00138 | 538 | 2.57 | 15 | 61 | – | – | – | – | – | – |
| CCCCCCCCCCCCCCCCCCCCCCCCC(=O)NCCOCCOCCOCC(=O)NCCOCCOCCOCCOC1OC(CO)C(O)C(O)C1O (stereo not shown) [ManC24] | 9e-05 | 273 | – | – | – | sub-micromolar range | 17 | reduced trans-infection in a dose -dependent manner; also recorded: able to inhibit trans-infection to a similar extent; also recorded: inhibited in a dose -dependent manner | 120 | – | – |
| CCCCCCCCCCCCCCCCCC(=O)NCCOCCOCCOCC(=O)NCCOCCOCCOCCOC1OC(CO)C(O)C(O)C1O (stereo not shown) [ManC17] | – | – | – | – | – | – | 17 | reduced trans-infection in a dose -dependent manner; also recorded: able to inhibit trans-infection to a similar extent; also recorded: inhibited in a dose -dependent manner | 120 | bound with a low affinity | Low binding |
